In US20220125042A1, “CRYOPROTECTANT AND/OR CRYOPRESERVANT COMPOSITION, METHODS AND USES THEREOF” (UNIVERSIDADE NOVA DE LISBOA, priority 2017, published 2022):

Columns and labels:
L929 cell lines = assay: Direct contact of NADES with cell culture, viability by MTS assay; type: cell-based; conditions: FIG. 3
Procedure: In an embodiment, the L929 cell lines were grown in DMEM (Sigma, USA), supplemented with 10% heat-inactivetes fetal bovine serum (FBS, Biochron AG, Germany) and 1% antibiotic-antimicotic (Gibco, USA). The cells were cultured in a humidified atmosphere of 37° C., with 5% CO2.
In an embodiment, the viability of the systems prepared was measured using a method of direct contact with cells (Direct−contact of NADES with cell culture). The cells were seeded onto a 96-well plate for 24 h in the total 1×10^4 cells/well. After 24 h, the medium was removed and extracts with different percentage of NADES, in particular 1%, 5%, 10% and 20% in culture medium were added. The viability of the cells cultured with these extracts was determined by MTS assay, after 24 h and 72 h.
In an embodiment, the MTS cell viability assay was conducted as follows: the influence of the cryopreservants was determined by MTS assay (Cell Titer 96 Aqueous One Solution Cell Proliferation Assay, Promega, USA) after 24 h and 72 h of culture. […] The absorbance was measured at a wavelength of 490 nm using a microplate spectrometer (Synergy HT, Bio-TEK, USA). To the results of absorbance was subtracting the absorbance obtained by blank (culture medium MTS with MTS reagent). […]

L929 cell line = assay: Cryopreservation (freezing/thawing) of cells with cryoprotective agent; morphology, live-dead, DAPI-Phalloidin and MTS viability after thawing; type: cell-based; conditions: 10% cryopreservant, FIG. 4
Procedure: In an embodiment, the cells were freezed and thawed, in particular the cells were collected by centrifugation (300 rpm for 5 min) and suspended in cool mixture with FBS and cryopreservant (DMSO or Treh-Gly; 5% and 10% cryopresenvant in the FBS). The cells and freezing medium were dispensed into cryotubes (Nunc) (1×10^6 cells/1 mL), and immediately placed into a freezing box (Mr. Frosty) at −20° C. for 2 h. Latter they were placed for 24 h at −80° C. and then the cryotubes were placed in liquid nitrogen. The cells were frozen for 1, 2 and 3 months. As control trehalose and glycerol alone were used in the same concentration. […] In an embodiment, the MTS cell viability assay was conducted as follows: the influence of the cryopreservants was determined by MTS assay (Cell Titer 96 Aqueous One Solution Cell Proliferation Assay, Promega, USA) after 24 h and 72 h of culture. […] The absorbance was measured at a wavelength of 490 nm using a microplate spectrometer (Synergy HT, Bio-TEK, USA). To the results of absorbance was subtracting the absorbance obtained by blank (culture medium MTS with MTS reagent). In an embodiment, the live/dead cell viability assay was used (calcein AM/propidium iodide (PI) staining) (n=5 samples per well) to evaluated cell viability. […] In an embodiment, in vitro biological evaluation of NADES performance as cryopreservant was assessed using the L929 cell line. […]

`C[S+](C)[O-]` [DMSO] was tested, and the “cell viability in contact with cells” value (L929 cell lines; 10% and 20% in the culture media) was “cell dead” and the “cell viability in contact with cells” value (L929 cell lines; low concentrations, 1 or 5% in culture media) was “very low viability”.

`OCC(O)CO` [glycerol] was tested, and the “morphological analysis and cell viability after cryopreservation” value (L929 cell line) was “somewhat compromised”.

With `OC[C@H]1O[C@H](O[C@H]2O[C@H](CO)[C@@H](O)[C@H](O)[C@H]2O)[C@H](O)[C@@H](O)[C@@H]1O` [trehalose] the “morphological analysis and cell viability after cryopreservation” value (L929 cell line) was “somewhat compromised”.
